Test results reported in publication PMC3310203 (Journal of Medicinal Chemistry, 2012).
Entries after “also recorded” stand apart in the source; their conditions may differ. Like-named read-outs stand apart in the source and are kept apart here.

Tests used:
[1] = ATZ for comparison, cited from earlier work
HIV = experiment: In vitro anti-HIV activity in MT4 cells; type: cell-based; settings: for times higher potency than 13a in the cell-based antiviral activity assay: fold versus 13a
HIV-1 protease = HIV-1 protease (Human immunodeficiency virus type 1 group M subtype B, UniProt P04585); experiment: HIV protease inhibition, fluorometric assay; type: biochemical; settings: for Ki: fluorometric assay, pH 5.0, 30 °C, 5 µM substrate
Metabolic stability = type: in vitro ADME, human
Caco-2 cell = Caco-2 cell penetration assay; type: in vitro ADME
[2] = p-bromide inhibitors 13a and 19a compared

In the case of `COC(=O)N[C@H](C(=O)N[C@@H](Cc1ccccc1)[C@@H](O)CN(Cc1ccc(-c2ccccn2)cc1)NC(=O)[C@@H](NC(=O)OC)C(C)(C)C)C(C)(C)C` [ATZ, Atazanavir], the Clint ([1]; ref 23) is given as 90 μL min^–1 mg^–1 and the Clint ([1]; ref 64) is given as 140 μL min^–1 mg^–1.
For `COC(=O)N[C@H](C(=O)NN(CC[C@@]1(Cc2ccccc2)C(=O)N([C@H]2c3ccccc3C[C@H]2O[Si](C)(C)C(C)(C)C)C[C@H]1O[Si](C)(C)C(C)(C)C)Cc1ccc(Br)cc1)C(C)(C)C` [Compound 12a], the “activity in the cell-based antiviral assay (in words)” value (HIV) was “did not show any activity” and the “activity in the enzyme assay (in words)” value (HIV-1 protease) was “did not show any activity; also recorded: did not show any inhibitory potency”.
For `COC(=O)N[C@H](C(=O)NN(CC[C@@]1(Cc2ccccc2)C(=O)N([C@H]2c3ccccc3C[C@H]2O[Si](C)(C)C(C)(C)C)C[C@@H]1O[Si](C)(C)C(C)(C)C)Cc1ccc(Br)cc1)C(C)(C)C` [Compound 12d], the “activity in the cell-based antiviral assay (in words)” value (HIV) was “did not show any activity” and the “activity in the enzyme assay (in words)” value (HIV-1 protease) was “did not show any activity; also recorded: did not show any inhibitory potency”.
In the case of `COC(=O)N[C@H](C(=O)NN(CC[C@@]1(Cc2ccccc2)C(=O)N([C@H]2c3ccccc3C[C@H]2O)C[C@H]1O)Cc1ccc(Br)cc1)C(C)(C)C` [Compound 13a], the EC50 (HIV; Human immunodeficiency virus 1, MT4, antiviral activity, MT4 cells) is reported as < 1000 nM, the Ki (HIV-1 protease) is reported as < 10 nM and the “metabolic clearance (in words)” value (Metabolic stability) is reported as “High metabolic clearance”.
For `COC(=O)N[C@H](C(=O)NN(CC[C@]1(Cc2ccccc2)C(=O)N([C@H]2c3ccccc3C[C@H]2O)C[C@H]1O)Cc1ccc(Br)cc1)C(C)(C)C` [Compound 13b], the “activity in the cell-based antiviral assay (in words)” value (HIV) was “did not show any activity; also recorded: almost no inhibiting effect” and the “activity in the enzyme assay (in words)” value (HIV-1 protease) was “did not show any activity; also recorded: almost no inhibiting effect”.
For `COC(=O)N[C@H](C(=O)NN(CC[C@]1(Cc2ccccc2)C(=O)N([C@H]2c3ccccc3C[C@H]2O)C[C@@H]1O)Cc1ccc(Br)cc1)C(C)(C)C` [Compound 13c], the “activity in the cell-based antiviral assay (in words)” value (HIV) was “did not show any activity; also recorded: almost no inhibiting effect” and the “activity in the enzyme assay (in words)” value (HIV-1 protease) was “did not show any activity; also recorded: almost no inhibiting effect”.
With `COC(=O)N[C@H](C(=O)NN(CC[C@@]1(Cc2ccccc2)C(=O)N([C@H]2c3ccccc3C[C@H]2O)C[C@@H]1O)Cc1ccc(Br)cc1)C(C)(C)C` [Compound 13d] the “permeability in the Caco-2 study (in words)” value (“permeability” below) (Caco-2 cell) was “good results”, the Ki (HIV-1 protease) was < 10 nM and the “metabolic clearance (in words)” value (Metabolic stability) was “High metabolic clearance”.
With `COC(=O)N[C@H](C(=O)NN(CC[C@@]1(Cc2ccccc2)C(=O)N([C@H]2c3ccccc3C[C@H]2O)C[C@H]1O)Cc1ccc(-c2cccnc2)cc1)C(C)(C)C` [Compound 13g] the “times higher potency than 13a in the cell-based antiviral activity assay” value (HIV) was 10 and the “permeability” value (Caco-2 cell) was “moderate permeability”.
With `COC(=O)N[C@H](C(=O)NN(CC[C@@]1(Cc2ccccc2)C(=O)N([C@H]2c3ccccc3C[C@H]2O)C[C@@H]1O)Cc1ccc(-c2cccnc2)cc1)C(C)(C)C` [Compound 13h] the “permeability” value (Caco-2 cell) was “moderate permeability”.
With `COC(=O)N[C@H](C(=O)NN(CC[C@@]1(Cc2ccccc2)C(=O)N([C@H]2c3ccccc3C[C@H]2O)C[C@H]1O)Cc1ccc(-c2ccncc2)cc1)C(C)(C)C` [Compound 13i] the “times higher potency than 13a in the cell-based antiviral activity assay” value (HIV) was 10.
For `COC(=O)N[C@H](C(=O)NN(CCC[C@@]1(Cc2ccccc2)C(=O)N([C@H]2c3ccccc3C[C@H]2O)C[C@H]1O)Cc1ccc(Br)cc1)C(C)(C)C` [Compound 19a], the “fold loss of potency versus 13a (EC50)” value (HIV; [2]) was 5, the “permeability” value (Caco-2 cell) was “high permeability” and the “fold loss of potency versus 13a (Ki)” value (HIV-1 protease; [2]) was 5.
